Assay results from patent US9023793B2, “Intranasal carbetocin formulations and methods for the treatment of autism” (Retrophin, Inc., priority 2006, dated 2015).
*1 amine or outer side, *2 acyl side, *3 side chain or, on linkers, in order; H or OH if unused. Where a SMILES comes first, the peptide text is derived from it. Bridges are numbered along the chain shown (N, C = ends). X1 = O=C(CCC[*:2])[*:1]

Tests used:
rats = test: Anxiolytic effect, elevated plus-maze assay; type: in vivo
Experimental: The anxiolytic effect of carbetocin and oxytocin was tested using the elevated plus-maze assay in rats as described in Holmes, A., et al., Behav. Neurosci. 115(5):1129-44, 2001. See also Sahuque, L., et al., Psychopharmacology 186(1):122-132, Berl, 2006; Carvalho, M. C., et al., Braz. Med. Biol. Res. 38(12):1857-66, 2005; and Langen, B., et al., J. Pharmacol. Exp. Ther. 314:717-724, 2005. Alprazolam, a known anxiety drug, was also included in the study. Sixty male, 6-10 week old experimentally naïve rats obtained from the Charles River laboratories were divided into six groups of ten animals each. All animals were maintained in compliance with the standards of the National Research Council and were fed certified rodent diet (Teklad, Madison, Wis.) and water ad libitum. The animals were housed in a dedicated study room with 12 hour light/12 hour dark at RT 18 to 26° C. and 30-70% humidity. Study animals were acclimated to their housing for at least 5 days prior to the first day of dosing. Routes of administration included intracerebroventricular (ICV), intraperitoneal (IP), or intramuscular (IM).
For the anxiolytic study, all groups were dosed by injection with formulations that contained the appropriate API in 0.9% saline solution. Alprazolam was an oral solution dosage form and diluted to the desired concentration in 0.9% saline for the anxiolytic study, Alprazolam Intensol™ Oral Solution (Concentrate) 1 mg/ml (each ml contains 1 mg Alprazolam).
The dosing preparations were administered once to each rat as a bolus. In the ICV administration group, test doses were administered into the lateral ventricle through a port in the already implanted ICV cannula. Testing was conducted 20 minutes after ICV and 30 minutes after IM and IP. The animals were tested for 15 minutes on the maze immediately following transport from the home cage.
The elevated plus maze consisted of a platform with 4 arms, two open and two closed (50×10×50 cm enclosed with an open roof). Rats were tested two at a time and placed by hand in the center of the platform of two separate mazes, at the crossroad of the 4 arms, facing one of the open arms. After fifteen minutes, the first rat was left for a few seconds until the second rat's fifteen minutes was completed. The rats were monitored remotely.
Prior to each rat's test, the plus-maze surfaces and closed sides were cleaned. Rats were handled by gloved hands. The time from removal from the home cage to start of testing was less than 15 seconds. Rats were gently removed from the home cage and placed onto the center square between the open and closed arms, and facing the opposite open arm. The rats were facing away from the experimenter. The experimenter moved away from the maze to an area not visible to the rat(s) and viewed the rat(s) via television monitor. At the end of the test the recorder was stopped and the rat(s) removed from the maze.
The rats were evaluated for time spent in open arm exploration (Open Time), time spent in closed arm exploration (Closed Time) and scored for anxiety according to the percent of time spent in open arm exploration ([time spent in open arms/time spent in open arms+time spent in closed arms×100]) (Open Time %); the absolute time spent in open arm exploration; and the percent of open arm entries ([number of open arm entries/number of open arm entries+number of closed arm entries]×100). The number of total arm entries was used as a measure of overall locomotor activity. The scores were compared to the vehicle controls and to the baseline using one-way ANOVA followed by the appropriate post-hoc test (Bonferroni/Dunnets) and a p<0.05 was considered to be statistically significant.

clinical [1] = conditions: human, in vivo; for AUC(0-t) / Tmax: inhaled or intranasal
Experimental: In this human clinical study (cross-over, dose escalating), the intranasal (IN) formulation of carbetocin was administered (a single dose) to 12 healthy human subjects (18-65 years old) at three strengths (150, 300, and 500 μg per dose) and compared to the 50 μg dose of Duratocin® administered by intramuscular injection (IM). Blood samples were taken periodically between t=0 (predose) and 6 hrs after dosing.

clinical [2] = conditions: human, in vivo; for Cmax / Tmax / AUC(0-t): inhaled or intranasal
Experimental: (§2) In this second clinical trial, three concentrations of carbetocin were manufactured based on the formulation disclosed in Table 38 in order to provide a carbetocin dose of 150 μg, 250 μg, and 400 μg. Blood samples for PK analysis of carbetocin and oxytocin levels were collected in EDTA coated blood collection tubes from patients. Aprotinin was immediately added and the samples were centrifuged to obtain plasma samples. Intranasal (IN) formulation of carbetocin were dosed using a 100 μl actuator in 12 healthy, human subjects at three strengths (1.5, 2.5, and 4.0 mg/ml) and compared to intramuscular (IM) dose of Duratocin® (Carbetocin Injection). An additional comparison to the commercially available version of intranasal oxytocin (Syntocinon Spray®) was also conducted. Blood samples were taken periodically between t=0 (predose) and 6 hrs.

[3] = human, in vivo, inhaled or intranasal, 150 ug
Experimental: as §2

in vivo = conditions: rabbit, inhaled or intranasal, 60 ug
Experimental: In this Example, eight groups of rabbits were dosed with the formulations presented in Table 34; group 1 received intramuscular (IM) carbetocin injection at 30 μg dose, while the remaining 7 groups received the 60 μg doses of intranasal (IN) carbetocin nasal spray formulations.
Briefly, in this rabbit PK study 3, Group 1 represents a control intramuscular injection; Group 2 represents a formulation used for our first human clinical study. […] In context with formulation #5, the design of this experiment is intended to further confirm the effect of CMC-LV on BA.
For this experiment, 25 ml of each intranasal (IN) formulation was prepared. All IN formulations were stored in 3×1 ml aliquots in 1cc amber glass bottles. Also, 400 ml of the intramuscular (IM) formulation was prepared and stored in 3×3 mL aliquots in 3 cc clear glass bottles. All formulations were stored at 2-8° C.

[4] = in vivo; cited from earlier work
[5] = system: tracheal/bronchial epithelial cell membrane inserts (EpiAirway); test: Transepithelial electrical resistance (TER); type: cell-based; conditions: Rabbit Pharmacokinetic Study 3 formulations
Experimental: Tracheal/bronchial epithelial cell membrane inserts (EpiAirway, MatTek Corp., Ashland, Mass.) were received the day before the experiment. Each tissue insert was placed in a well of a 6 well plate which contained 0.9 ml of serum free media and cultured at 37° C. for 24 hours to allow the tissues to equilibrate. The day of the experiment, transepithelial electrical resistance measurements were taken for each insert using a Tissue Resistance Measurement Chamber connected to an Epithelial Voltohmeter (World Precision Instruments, Inc., Sarasota, Fla.).
(§1) 200 μl of fresh media was gently added to each tissue insert in the 24 well plate and the plate was placed no a shaker table at room temperature for 5 minutes. 150 μl of apical solution was removed from each insert and reserved for a […] dehydrogenase assay. The inserts were then washed with 300 μl of media; 300 μl of new media was added to each insert, the inserts were incubated for 20 minutes at room temperature and the transepithelial electrical resistance was measured.

[6] = system: tracheal/bronchial epithelial cell membrane inserts (EpiAirway); test: Cell viability, MTT assay; type: cell-based; conditions: Rabbit Pharmacokinetic Study 3 formulations
Experimental: Cell viability was assessed using an MTT assay kit (MatTek Corp., Ashland, Mass.). MTT concentrate was thawed and diluted with media at a ratio of 2 ml MTT:8 ml media. 300 μl MTT-media mix was added to each well of a 24 well plate. Tissue culture inserts were drained and transferred to the MTT containing well and incubated at 37° C. in the dark for three hours. After incubation, each insert was removed from the plate, and then immersed in the wells of a fresh 24-well plate containing 2 ml extractant solution. The plate was then covered and incubated overnight at room temperature in the dark. The liquid in each insert was then decanted back into the well from which it was taken and the insert was discarded. 50 μl of the exractant solution from each well was then pipetted in triplicate into a 96 well plate and diluted with the addition of 150 μl of fresh extractant solution. The optical density of the samples was then measured at 550 nm on a Spectramax plate reader (Molecular Devices, Sunnyvale, Calif.) using SpectraPro software.

[7] = system: tracheal/bronchial epithelial cell membrane inserts (EpiAirway); test: Cytotoxicity, LDH assay (apical and basolateral); type: cell-based; conditions: Rabbit Pharmacokinetic Study 3 formulations
Experimental: as §1
The inserts are then transferred into a new 24 well plate containing no media and the appropriate amount of media was added to the apical surface in order to total 300 μl. The inserts were then shaken for five minutes at 100 RPM at room temperature. 50-100 μl of the apical media were then removed, placed in […] and kept at 2-8° C. until needed.
The samples were then centrifuged at 1000 rpm for 5 minutes. 2 μl of the supernatant was removed and added to a 96 well plate. 48 μl of media was then used to dilute the supernatant to make a 25× dilution and each sample was assayed in triplicate for LDH loss using a CytoTox 96 Cytotoixcity Assay Kit (Promega Corp., Madison, Wis.).
For analysis of the basolateral media, 50 μl of the reserved 150 μl solution was loaded into a 96 well assay plate and assayed in triplicate.

[8] = IP route, tested 30 minutes after dosing
[9] = ICV route, tested 20 minutes after dosing
[10] = IM route, tested 30 minutes after dosing

Cc1nnc2n1-c1ccc(Cl)cc1C(c1ccccc1)=NC2 [Alprazolam]
Closed Time (rats; [8]): 116.55
Open Time (rats; [8]): 46.07
Open Time (%) (rats; [8]): 27.9%

CC[C@H](C)[C@@H]1NC(=O)[C@H](Cc2ccc(O)cc2)NC(=O)[C@@H](N)CSSC[C@@H](C(=O)N2CCC[C@H]2C(=O)N[C@@H](CC(C)C)C(=O)NCC(N)=O)NC(=O)[C@H](CC(N)=O)NC(=O)[C@H](CCC(N)=O)NC1=O [Oxytocin]
Closed Time (rats; [9]): 158.42
Open Time (rats; [9]): 17.89
Open Time (%) (rats; [9]): 11.3%
Closed Time (rats; [10]): 159.47
Open Time (rats; [10]): 14.54
Open Time (%) (rats; [10]): 8.6%

CC[C@H](C)[C@@H]1NC(=O)[C@H](Cc2ccc(OC)cc2)NC(=O)CCCSC[C@@H](C(=O)N2CCC[C@H]2C(=O)N[C@@H](CC(C)C)C(=O)NCC(N)=O)NC(=O)[C@H](CC(N)=O)NC(=O)[C@H](CCC(N)=O)NC1=O [carbetocin, 1-butanoic acid-2-(O-methyl-L-tyrosine)-1-carbaoxytocin] (Y(Me)IQNCPLG-NH2; linker N-5 via X1 (inferred))
Cmax (clinical [1]; 150 ug): 0.32 ng/mL
half-life (clinical [1]; 150 ug): 33 min
Cmax (clinical [1]; 300 ug): 0.43 ng/mL
half-life (clinical [1]; 300 ug): 46 min
Cmax (clinical [1]; 500 ug): 0.74 ng/mL
half-life (clinical [1]; 500 ug): 42 min
bioavailability (clinical [1]; im, Bioavailability): 6%
AUC(0-t) (clinical [1]; 150 ug): 0.2 ng·h/mL
AUC(0-t) (clinical [1]; 300 ug): 0.25 ng·h/mL
Tmax (clinical [1]; 300 ug): 10 min
AUC(0-t) (clinical [1]; 500 ug): 0.717 ng·h/mL
Tmax (clinical [1]; 500 ug): 18.6 min
bioavailability (clinical [2]; 150 ug): 7%
bioavailability (clinical [2]; 250 ug): 6%
bioavailability (clinical [2]; 400 ug): 7%
Cmax (clinical [2]; 150 ug): 0.222 ng/mL
Tmax (clinical [2]; 150 ug): 15 min
AUC(0-t) (clinical [2]; 250 ug): 0.302 ng·h/mL
Cmax (clinical [2]; 250 ug): 0.377 ng/mL
Tmax (clinical [2]; 250 ug): 18 min
AUC(0-t) (clinical [2]; 400 ug): 0.542 ng·h/mL
Cmax (clinical [2]; 400 ug): 0.608 ng/mL
Tmax (clinical [2]; 400 ug): 13 min
AUClast [3]: 13697 (121) min*pg/ml
F rel (in vivo): ~9%
half-life relative to that of oxytocin [4]: 4-10 times

Triton
TER T = 0 ([5]; T = 0): 504.4 ohm × cm^2
TER T = 60 min ([5]; T = 60 min): 0.2 ohm × cm^2
MTT % [6]: 1.4%
Apical LDII % ([7]; apical): 100.0%
Basolateral LDH % ([7]; basolateral): 100.0%
